Usually mortality stands for the share of the test organisms that died.

Common to all, as to format: in vivo
In data set [1] the test system is Colorado potato beetle (Leptinotarsa decemlineata, adult). Briefly: Colorado potato beetle test on treated eggplant foliage (B.3). Particulars: test concentration 300 ppm, assessed 4 days after treatment. As to the method: B.3 Colorado potato beetle (Leptinotarsa decemlineata, adult)
The active compounds were formulated in cyclohexanone as a 10,0000 ppm solution supplied in 1.3 ml ABgene® tubes. These tubes were inserted into an automated electrostatic sprayer equipped with an atomizing nozzle and they served as stock solutions for which lower dilutions were made in 50% acetone:50% water (v/v). A nonionic surfactant (Kinetic®) was included in the solution at a volume of 0.01% (v/v). Eggplants were grown 2 plants to a pot and were selected for treatment at the 1st true leaf stage. Test solutions were sprayed onto the foliage by an automated electrostatic plant sprayer equipped with an atomizing spray nozzle. The plants were dried in the sprayer fume hood and then removed from the sprayer. The treated foliage was then cut and removed from the pot and placed in a 5-inch Petri dish lined with moistened filter paper. Five beetle larvae were introduced into each Petri dish and the dish was covered by a Petri dish lid. Petri dishes were maintained in a growth room at 25° C. and 20-40% relative humidity for 4 days, avoiding direct exposure to fluorescent light (24 hour photoperiod) to prevent trapping of heat inside the dishes. Mortality and reduced feeding were assessed 4 days after treatment, compared to untreated control plants.

Data set [2] relates to Diamondback moth (Plutella xylostella). As to the kind of experiment: Diamondback moth leaf-dip test on Chinese cabbage (B.4). Particulars: test concentration 500 ppm, dipped Chinese cabbage leaves, mortality recorded 24, 72 and 120 hours after treatment, read-out: mortality in comparison with untreated controls. As to the method: B.4 Diamondback moth (Plutella xylostella)
The active compound was dissolved at the desired concentration in a mixture of 1:1 (vol:vol) distilled water:acetone. The test solution was prepared at the day of use.
The activity against Plutella xylostella can be tested by the following experiments:
Leaves of Chinese cabbage were dipped in test solution and air-dried. Treated leaves were placed in petri dished lined with moist filter paper. Mortality was recorded 24, 72, and 120 hours after treatment.

Data set [3] has as its system Mediterranean fruitfly (Ceratitis capitata). As to the kind of experiment: Mediterranean fruitfly insect diet microtiter test (B.9). Particulars: 120 h, test concentration 800 ppm, egg and larval mortality on insect diet, 5 days. As for the experimental part:
B. 9 Mediterranean fruitfly (Ceratitis capitata)
For evaluating control of Mediterranean fruitfly (Ceratitis capitata) the test unit consisted of microtiter plates containing an insect diet and 50-80 C. capitata eggs. The compounds were formulated using a solution containing 75% v/v water and 25% v/v DMSO. Different concentrations of formulated compounds were sprayed onto the insect diet at 5 μl, using a custom built micro atomizer, at two replications. After application, microtiter plates were incubated at about 28±1° C. and about 80±5% relative humidity for 5 days. Egg and larval mortality was then visually assessed.

Data set [4] relates to Tobacco budworm (Heliothis virescens). Briefly: Tobacco budworm insect diet microtiter test (B.10). Particulars: 120 h, test concentration 800 ppm, egg and larval mortality on insect diet, 5 days. As to the method:
B.10 Tobacco budworm (Heliothis virescens)
For evaluating control of tobacco budworm (Heliothis virescens) the test unit consists of 96-well-microtiter plates containing an insect diet and 15-25 H. virescens eggs. The compounds were formulated using a solution containing 75% v/v water and 25% v/v DMSO. Different concentrations of formulated compounds were sprayed onto the insect diet at 10 μl, using a custom built micro atomizer, at two replications. After application, microtiter plates were incubated at about 28±1° C. and about 80±5% relative humidity for 5 days. Egg and larval mortality was then visually assessed.

Data set [5] concerns Southern Armyworm (Spodoptera eridania, 2nd instar larvae). Briefly: Southern Armyworm foliar spray test on lima bean plants (B.1). Particulars: 96 h, assessed 4 days after treatment, read-out: mortality in comparison with untreated controls. As for the experimental part: B.1 Southern Armyworm (Spodoptera eridania, 2nd instar larvae)
The active compounds were formulated in cyclohexanone as a 10,0000 ppm solution supplied in 1.3 ml ABgene® tubes. These tubes were inserted into an automated electrostatic sprayer equipped with an atomizing nozzle and they served as stock solutions for which lower dilutions were made in 50% acetone: 50% water (v/v). A nonionic surfactant (Kinetic®) was included in the solution at a volume of 0.01% (v/v). Lima bean plants (variety Sieva) were grown 2 plants to a pot and selected for treatment at the 1st true leaf stage. Test solutions were sprayed onto the foliage by an automated electrostatic plant sprayer equipped with an atomizing spray nozzle. The plants were dried in the sprayer fume hood and then removed from the sprayer. Each pot was placed into perforated plastic bags with a zip closure. Ten to 11 armyworm larvae were placed into the bag and the bags zipped closed. Test plants were maintained in a growth room at 25° C. and 20-40% relative humidity for 4 days, avoiding direct exposure to fluorescent light (24 hour photoperiod) to prevent trapping of heat inside the bags. Mortality and reduced feeding were assessed 4 days after treatment, compared to untreated control plants.

For the molecule `CCNc1nc(-c2ccc(F)cc2)nc2cc(C(F)(F)F)ccc12` [I-201], the “mortality in comparison with untreated controls” value in data set [1] is reported as “at least 50%”.
For `CCNc1nc(-c2ccc(C(F)(F)F)cc2)nc2cc(C(F)(F)F)ccc12` [I-209, [2-(4-Trifluoromethylphenyl)-7-trifluoromethyl-quinazolin-4-yl]ethylamine], the mortality at 500 ppm in data set [2] was at least 50%. Moreover, the mortality at 800 ppm in data set [3] and in data set [4] was at least 50% in each case.
Take `CCNc1nc(-c2ccc(Cl)cc2)nc2cc(C(F)(F)F)ccc12` [I-99, [2-(4-Chloro-phenyl)-7-trifluoromethyl-quinazolin-4-yl]ethylamine]: the mortality at 500 ppm in data set [2] was at least 50%. The mortality at 300 ppm in data set [5] was at least 50%. Further, the mortality at 800 ppm in data set [3] and in data set [4] was at least 50% throughout.
